Laboratory results from PubChem BioAssay (NCI).
Several values for one entry are separate records, joined by “and”; a condition that tells them apart may be missing. Equal entries are not always repeated.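 Values below derive from 48-hour exposures of cells grown in 96-well plates, with endpoints linearly interpolated between the two concentrations bracketing the appropriate inhibition level. Abbreviation: GI50, concentration required for 50% inhibition of growth. TGI is the concentration that stops growth completely.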

Tests used:
Experiment in all cases: NCI anticancer screen, dose series, 48 h
[1] = tested on: NCI-H460 lung
[2] = tested on: NCI-H226 lung
[3] = tested on: UACC-257 melanoma
[4] = tested on: CCRF-CEM leukemia
[5] = tested on: MDA-MB-435
[6] = tested on: SK-MEL-28 melanoma
[7] = tested on: A549 NSCLC
[8] = tested on: ACHN renal
[9] = tested on: SW-620 colon
[10] = tested on: HCT-15 colon

Compound `C#COc1cccc(Nc2c(C#N)cnc3ncc(NC(=O)CCl)cc23)c1` has a GI50 [1] of 31.9 µM, a TGI [1] greater than 62.5 µM and a GI50 [2] greater than 62.5 µM. It also gave a TGI [2] greater than 62.5 µM, a GI50 [3] greater than 62.5 µM and a TGI [3] greater than 62.5 µM. The GI50 [4] was 3.72 µM, the TGI [4] was greater than 62.5 µM and the GI50 [5] was greater than 62.5 µM. The TGI [5] was greater than 62.5 µM, the GI50 [6] was greater than 62.5 µM and the TGI [6] was greater than 62.5 µM. For the same compound, the GI50 [7] was 46.9 µM, the TGI [7] was greater than 62.5 µM and the GI50 [8] was 22.9 µM. For the same compound, the TGI [8] was greater than 62.5 µM, the GI50 [9] was 19.8 µM and the TGI [9] was greater than 62.5 µM. It also gave a GI50 [10] greater than 62.5 µM and a TGI [10] greater than 62.5 µM.

`COc1ccc(-n2c(C)cc(-c3ccccc3)c2C)cc1` showed a GI50 [1] of 3.13 µM, a TGI [1] of 18.9 µM and a GI50 [2] of 5.75 µM. The TGI [2] was 31.2 µM, the GI50 [3] was 2.33 µM and the TGI [3] was 7.51 µM. For the same compound, the GI50 [4] was 2.16 µM, the TGI [4] was 9.16 µM and the GI50 [5] was 1.56 µM. For the same compound, the TGI [5] was 5.58 µM, the GI50 [6] was 3.68 µM and the TGI [6] was greater than 100 µM. For the same compound, the GI50 [7] was 2.88 µM, the TGI [7] was 38.7 µM and the GI50 [8] was 2.82 µM. It also gave a TGI [8] of 33.3 µM, a GI50 [9] of 2.14 µM and a TGI [9] of 12.5 µM. It also gave a GI50 [10] of 1.95 µM and a TGI [10] of 13.3 µM.

`COc1cc(OC)c(/C=C/c2c3ccccc3cc[n+]2C)c(OC)c1` was tested, and the GI50 [1] was 1.82 µM, the TGI [1] was 8.83 µM and the GI50 [2] was 2.73 µM. For the same compound, the TGI [2] was greater than 100 µM, the GI50 [3] was 0.674 µM and the TGI [3] was 6.01 µM. For the same compound, the GI50 [4] was 2.08 µM, the TGI [4] was greater than 72.1 µM and the GI50 [5] was 0.781 µM. For the same compound, the TGI [5] was 10.1 µM, the GI50 [6] was 2.34 µM and the TGI [6] was 13.2 µM. The GI50 [7] was 2.13 µM, the TGI [7] was greater than 100 µM and the GI50 [8] was 10.9 µM. For the same compound, the TGI [8] was greater than 100 µM, the GI50 [9] was 2.12 µM and the TGI [9] was 14.2 µM. For the same compound, the GI50 [10] was 24.7 µM and the TGI [10] was greater than 100 µM.

In the case of `CN1C(=O)/C(=C/c2c(Cl)n(C)c3ccccc23)c2ccccc21`, the GI50 [1] is reported as 6.17 µM and 2.84 µM, the TGI [1] is reported as greater than 100 µM and the GI50 [2] is reported as 5.05 µM. For the same compound, the GI50 [3] was 4.53 µM, the TGI [4] was greater than 100 µM and the GI50 [5] was 1.89 µM and 1.69 µM. For the same compound, the TGI [5] was 4 µM and 3.13 µM, the GI50 [6] was 5.24 µM and 1.62 µM and the TGI [6] was 3.05 µM. The GI50 [7] was 7.78 µM, the GI50 [8] was 4.85 µM and 1.7 µM and the TGI [8] was 3.11 µM. For the same compound, the GI50 [9] was 5.07 µM, the GI50 [10] was 2.69 µM and 1.89 µM and the TGI [10] was 3.56 µM.

With `CC[C@H]1CN2CCc3cc(OC)c(OC)cc3[C@@H]2C[C@@H]1C[C@H]1NCCc2c1[nH]c1ccc(O)cc21` the GI50 [1] was 0.0252 µM and 0.0398 µM, the TGI [1] was 0.0912 µM and 0.395 µM and 0.0422 µM and the GI50 [2] was 0.0282 µM and 0.0409 µM. For the same compound, the TGI [2] was 0.0778 µM and 0.261 µM and 0.0326 µM, the GI50 [3] was 0.223 µM and 0.212 µM and the TGI [3] was 0.666 µM and 0.69 µM and 0.643 µM. For the same compound, the GI50 [4] was 0.0129 µM and 0.0207 µM, the TGI [4] was 0.239 µM and 0.054 µM and 0.326 µM and the TGI [5] was 0.261 µM. The GI50 [6] was 0.0316 µM and 0.0425 µM, the TGI [6] was 0.0813 µM and 0.256 µM and 0.41 µM and the GI50 [7] was 0.0192 µM and 0.0336 µM. For the same compound, the TGI [7] was 0.0627 µM and 0.121 µM and 0.321 µM, the GI50 [8] was 0.0782 µM and 0.121 µM and the TGI [8] was 0.57 µM and 0.511 µM and 1.5 µM. The GI50 [9] was 0.0286 µM and 0.0339 µM, the GI50 [10] was 0.688 µM and the TGI [10] was 5.38 µM and 4.1 µM.

For `C1=C\COCc2cc(ccc2OCCN2CCCC2)Nc2nccc(n2)-c2cccc(c2)COC/1`, the GI50 [1] was 1.39 µM, the TGI [1] was 5.12 µM and the GI50 [2] was 3.19 µM. It also gave a TGI [2] of 5.09 µM, a GI50 [3] of 2.53 µM and a TGI [3] of 5.66 µM. For the same compound, the GI50 [4] was 2.56 µM, the TGI [4] was 7 µM and the GI50 [5] was 1.53 µM. The TGI [5] was 4.65 µM, the GI50 [6] was 2.1 µM and the TGI [6] was 5.33 µM. The GI50 [7] was 2.03 µM, the TGI [7] was 5.72 µM and the GI50 [8] was 1.12 µM. For the same compound, the TGI [8] was 4.8 µM, the GI50 [9] was 1.48 µM and the TGI [9] was 6.07 µM. The GI50 [10] was 1.26 µM and the TGI [10] was 7.51 µM.

`CN(CCO)c1ccc(N2Cc3ccccc3OC3=C2C(=O)c2c(O)ccc(O)c2C3=O)cn1` gave a GI50 [1] of 0.355 µM, a TGI [1] of 1.35 µM and a GI50 [2] of 0.854 µM. It also gave a TGI [2] of 2.95 µM, a GI50 [3] of 0.277 µM and a TGI [3] of 0.791 µM. The GI50 [4] was 0.0566 µM, the TGI [4] was 0.548 µM and the GI50 [5] was 0.215 µM. For the same compound, the TGI [5] was 0.478 µM, the GI50 [6] was 0.246 µM and the TGI [6] was 0.611 µM. For the same compound, the GI50 [7] was 2.08 µM, the TGI [7] was 4.9 µM and the GI50 [8] was 0.0462 µM. It also gave a TGI [8] of 0.179 µM, a GI50 [9] of 0.0728 µM and a TGI [9] of 0.328 µM. It also gave a GI50 [10] of 0.127 µM and a TGI [10] of 0.484 µM.

`OCc1ccn2c1[C@@H](O)CC2` showed a TGI [1] greater than 100 µM, a TGI [2] greater than 100 µM and a TGI [3] greater than 100 µM. It also gave a TGI [4] greater than 100 µM, a TGI [5] greater than 100 µM and a TGI [6] greater than 100 µM. It also gave a TGI [7] greater than 100 µM, a TGI [8] greater than 100 µM and a TGI [9] greater than 100 µM. It also gave a TGI [10] greater than 100 µM.

Compound `C=C1C(=O)O[C@H]2[C@H]1CC/C(COC(=O)/C=C\C(=O)NCc1ccc(Cn3c(=O)sn(CCCC)c3=O)cc1)=C\CC[C@@]1(C)O[C@@H]21` has a GI50 [1] of 1.27 µM, a TGI [1] of 2.73 µM and a GI50 [2] of 1.58 µM. It also gave a TGI [2] of 3.39 µM, a GI50 [3] of 1.38 µM and a TGI [3] of 2.93 µM. For the same compound, the GI50 [4] was 0.275 µM, the TGI [4] was 1.63 µM and the GI50 [5] was 0.513 µM. The TGI [5] was 1.77 µM, the GI50 [6] was 1.41 µM and the TGI [6] was 2.74 µM. It also gave a GI50 [7] of 1.56 µM, a TGI [7] of 4.16 µM and a GI50 [8] of 0.299 µM. It also gave a TGI [8] of 0.994 µM, a GI50 [9] of 0.201 µM and a TGI [9] of 0.443 µM. The GI50 [10] was 0.202 µM and the TGI [10] was 0.467 µM.

For `CC(=O)Oc1ccccc1C(=O)Nc1ncc([N+](=O)[O-])s1`, the GI50 [1] was 2.76 µM, the TGI [1] was 12.2 µM and > 100 µM and the GI50 [2] was 2.62 µM. The TGI [2] was 8.7 µM and 36.7 µM, the GI50 [3] was 2.16 µM and the GI50 [4] was 2.14 µM. For the same compound, the TGI [4] was 15.1 µM, the GI50 [5] was 2.13 µM and the TGI [5] was 7.58 µM and 59.7 µM. The GI50 [6] was 2.48 µM, the TGI [6] was 15.2 µM and > 100 µM and the GI50 [7] was 2.94 µM. The TGI [7] was greater than 100 µM, the GI50 [8] was 2.74 µM and the TGI [8] was 11.3 µM and > 100 µM. The GI50 [9] was 2.76 µM, the TGI [9] was greater than 100 µM and the GI50 [10] was 2.94 µM. The TGI [10] was 31.3 µM and > 95 µM.

`CCOc1ccncc1[N+](=O)[O-]` was tested, and the TGI [2] was greater than 100 µM, the TGI [3] was greater than 100 µM and the TGI [4] was greater than 100 µM. The TGI [5] was greater than 100 µM, the TGI [6] was greater than 100 µM and the TGI [7] was greater than 100 µM. For the same compound, the TGI [8] was greater than 100 µM, the TGI [9] was greater than 100 µM and the TGI [10] was greater than 100 µM.

`CCn1c(=O)c2c(=O)c3c4c(oc3oc2c2ccccc21)C(=O)c1ccccc1C4=O` gave a GI50 [1] greater than 100 µM, a TGI [1] greater than 100 µM and a GI50 [2] greater than 100 µM. It also gave a TGI [2] greater than 100 µM, a GI50 [3] greater than 100 µM and a TGI [3] greater than 100 µM. It also gave a GI50 [4] of 1.18 µM, a TGI [4] greater than 100 µM and a GI50 [5] greater than 100 µM. It also gave a TGI [5] greater than 100 µM, a GI50 [6] greater than 100 µM and a TGI [6] greater than 100 µM. It also gave a GI50 [7] greater than 100 µM, a TGI [7] greater than 100 µM and a GI50 [9] greater than 100 µM. It also gave a TGI [9] greater than 100 µM, a GI50 [10] greater than 100 µM and a TGI [10] greater than 100 µM.

`C=C1C(=O)OC2CC(C)C3(O)CCC(=O)C3(C)CC12` (configuration not stated) showed a TGI [2] greater than 100 µM, a TGI [3] greater than 100 µM and a TGI [4] greater than 100 µM. For the same compound, the TGI [5] was greater than 100 µM, the TGI [6] was greater than 100 µM and the TGI [7] was greater than 100 µM. The TGI [8] was 36.2 µM, the TGI [9] was greater than 100 µM and the TGI [10] was 28.1 µM.

With `O=CN1CCN(CC(O)CN2CCCCC2)CC1` (configuration not stated) the TGI [2] was greater than 100 µM, the TGI [3] was greater than 100 µM and the TGI [4] was greater than 100 µM. The TGI [5] was greater than 100 µM, the TGI [6] was greater than 100 µM and the TGI [7] was greater than 100 µM. The TGI [8] was greater than 100 µM, the TGI [9] was greater than 100 µM and the TGI [10] was greater than 100 µM.
